The source of these data is PMC7957565 (Molecules, 2021).

Data set [1] deals with T1, AChE (from electric eel) (Electrophorus electricus, UniProt O42275).
T1 construct: purchased Sigma-Aldrich
The data set is described as follows: biochemical. Particulars: eeAChE; compound at 100 μM; read-out: AChE inhibition rate (%) in 100 μM.

Data set [2] deals with butyrylcholinesterase (BuChE, from equine serum) (Equus caballus, UniProt P81908). As to the kind of experiment: biochemical. The conditions noted are these: eqBuChE; mean ± spread.
The test system of data set [3] is primary cortical neurons. As to the kind of experiment: Neuroprotection against OGD/R injury, MTT cell viability. The format is cell-based. The conditions noted are these: Rattus norvegicus, Primary cortical neuron, compound 10 μM, control 100%, OGD/R group 40.4%, read-out: Cell viability (MTT) after OGD/R. On the procedure:
The parental compounds Clau F and CZ-7 have remarkable neuroprotective effects. To further confirm whether the derivatives retain activity, an OGD/R model was performed in primary cortical neurons, and 3-(4,5-dimethylthiazol-2-yl)-2,5-diphenyltetrazolium bromide (MTT) assays were used to test cell viability. […]. According to the experimental results above, compound 6bd was selected as the candidate compound for the subsequent investigations.
[…]. All cell suspensions were grown in neurobasal/B27 medium with 100-U/mL penicillin and 100-μg/mL streptomycin. The cells were plated in poly-L-lysine (PLL, 0.1 mg/mL)-coated multiwell plates or chamber slides and maintained at 37 °C in a humidified atmosphere of 5% CO2 and 95% air. Seven day cultures were used for treatment. The treatment methods were similar to those used for PC12, but the concentrations of H2O2 and sodium dithionite were 100 μM and 2 mM, respectively.
Cell viability was determined by MTT assay. Cells were incubated with 5 mg/mL MTT (10 μL) at 37 °C for 4 h. The formazan crystals were dissolved, and absorbance was determined at 570 nm using a Microplate Reader (Thermo, Germany). The cell viability was expressed as a percentage of the optical density (OD) value of the control cultures.
Figure 2 Neuroprotective activity screening of 6aa–ad, 6ba–bf, 6ca–cd, and CZ-7 at 10 μM in primary cortical neurons induced by oxygen–glucose deprivation/reoxygenation (OGD/R). Neurons were exposed to […] sodium dithionite and reoxygenation. A 3-(4,5-dimethylthiazol-2-yl)-2,5-diphenyltetrazolium bromide (MTT) assay was used to test the cell viability. The absorbance of normal cells was regarded as 100%. Error bars represent the standard deviation. ### p < 0.001 vs. control; ** p < 0.05, *** p < 0.01 vs. model (means ± standard deviation, n = 6).

On the set-up of data set [4]: method as in PMID 29202406. The conditions noted are these: cited from earlier work.
The subject of data set [5] is ICR (Institute of Cancer Research) mice. The conditions noted are these: oral 1 g/kg dose; cited from earlier work.

Chain of butyrylcholinesterase (BuChE, from equine serum) (P81908 whole entry): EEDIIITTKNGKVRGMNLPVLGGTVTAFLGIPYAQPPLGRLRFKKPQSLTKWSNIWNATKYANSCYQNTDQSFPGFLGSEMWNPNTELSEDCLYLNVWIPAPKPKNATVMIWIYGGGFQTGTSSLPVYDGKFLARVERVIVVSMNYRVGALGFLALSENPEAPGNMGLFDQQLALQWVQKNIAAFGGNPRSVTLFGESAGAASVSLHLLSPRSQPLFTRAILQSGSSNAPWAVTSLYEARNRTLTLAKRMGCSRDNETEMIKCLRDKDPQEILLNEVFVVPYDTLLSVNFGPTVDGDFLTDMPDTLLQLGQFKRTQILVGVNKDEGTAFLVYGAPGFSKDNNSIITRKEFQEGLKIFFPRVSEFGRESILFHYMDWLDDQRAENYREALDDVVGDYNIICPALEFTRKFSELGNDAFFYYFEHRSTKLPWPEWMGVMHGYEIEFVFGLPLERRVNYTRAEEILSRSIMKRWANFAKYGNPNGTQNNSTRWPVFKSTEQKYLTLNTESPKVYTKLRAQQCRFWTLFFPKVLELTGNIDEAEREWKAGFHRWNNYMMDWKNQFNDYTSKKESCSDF
T1 sequence (O42275 24-633): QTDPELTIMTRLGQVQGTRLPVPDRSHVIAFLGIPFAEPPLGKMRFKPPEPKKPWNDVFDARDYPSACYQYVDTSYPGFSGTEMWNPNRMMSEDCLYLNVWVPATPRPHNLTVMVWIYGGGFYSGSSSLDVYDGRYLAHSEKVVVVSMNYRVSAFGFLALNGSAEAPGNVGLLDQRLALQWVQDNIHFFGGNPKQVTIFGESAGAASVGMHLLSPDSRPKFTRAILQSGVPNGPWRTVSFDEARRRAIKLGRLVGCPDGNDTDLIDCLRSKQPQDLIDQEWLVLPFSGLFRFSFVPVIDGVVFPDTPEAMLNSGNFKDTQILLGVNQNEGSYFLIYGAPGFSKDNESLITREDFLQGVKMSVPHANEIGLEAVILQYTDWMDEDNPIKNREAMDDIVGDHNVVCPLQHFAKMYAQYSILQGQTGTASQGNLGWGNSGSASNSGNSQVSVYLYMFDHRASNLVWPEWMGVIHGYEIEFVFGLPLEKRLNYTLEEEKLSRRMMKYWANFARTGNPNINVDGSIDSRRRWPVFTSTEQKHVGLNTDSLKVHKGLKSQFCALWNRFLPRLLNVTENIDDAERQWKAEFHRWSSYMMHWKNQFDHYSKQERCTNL

`Cc1cc2c([nH]c3ccc(C(C)(C)C)cc32)c2c1OC(C)(C)C=C2` [CZ-7, reference compound]: in data set [1], the inhibition (usually the drop in the measured response relative to a control, in per cent) at 100 µM is 32.5 ± 6.52%. In data set [2], the IC50 (usually the midpoint of a concentration-inhibition curve) was determined as 59.5 ± 5.62 µM. Besides, the viability at 10 µM in data set [3] amounted to 113%. For the same compound, the “Exposure in the brain relative to plasma” value in data set [4] is 4.3 fold. Further, the Acute toxicity finding entry in data set [5] is on record as “no toxic side effects”.
